Read-outs that look alike come from different tables or passages of the source.
How the values were obtained:
[1] = Tolerability of chronic daily i.p. injection; type: in vivo, mice; conditions: daily i.p. injections for up to 8 weeks
Procedure: All compounds were dissolved in Kolliphor® EL (Sigma, #C5135).

VRAC/ICl,SWELL = VRAC/ICl,SWELL (Homo sapiens, UniProt Q8IWT6); conditions: selective VRAC/ICl,SWELL inhibitor; cited from earlier work
T2D KKAy mice = assay: Hyperinsulinemic euglycemic glucose clamp in T2D KKAy mice; type: in vivo
Procedure: Sterile silicone catheters (Dow-Corning) were placed into the jugular vein of mice under isoflurane anesthesia. Placed catheter was flushed with 200 U/ml heparin in saline and the free end of the catheter was directed subcutaneously via a blunted 14-gauge sterile needle and connected to a small tubing device that exited through the back of the animal. […] Hyperinsulinemic euglycemic clamps were performed on day 8 post-surgery on unrestrained, conscious mice as described elsewhere (Ayala et al., 2011; Kim et al., 2000), with some modifications. Mice were fasted for 6 h at which time insulin and glucose infusion were initiated (time 0). At 80 min prior to time 0 basal sampling was conducted, where whole-body glucose flux was traced by infusion of 0.05 μCi/min D-[3-3H]-glucose (Perkin Elmer), after a priming 5 μCi bolus for 1 minute. After the basal period, starting at time 0 D-[3-3H]-glucose was continuously infused at the 0.2 μCi/min rate and the infusion of insulin (Humulin, Eli Lilly) was initiated with a bolus of 80 mU/kg/min then followed by continuous infusion of insulin at the dose of 8 mU/kg/min throughout the assay. Fifty percent dextrose (Hospira) was infused at a variable rates (GIR) starting at the same time as the initiation of insulin infusion to maintain euglycemia at the targeted level of 150 mg/dl ([…]). Blood glucose (BG) measurements were taken every ten minutes via tail vein sampling using Contour glucometer (Bayer). After mouse reached stable BG and GIR (typically, after 75 minutes since starting the insulin infusion; for some mice, a longer time was required to achieve steady state) a single bolus of 12 μCi of [1-14C]-2-deoxy-D-glucose (Perkin Elmer) in 96 μl of saline was administered. Plasma samples (collected from centrifuged blood) for determination of tracers enrichment, glucose level and insulin concentration were obtained at times −80, −20, −10, 0, and every 10 min starting at 80 min post-insulin (5 min after [1-14C]-2-deoxy-D-glucose bolus was administered) until the conclusion of the assay at 140 min. Tissue samples were then collected from mice under isofluorane anesthesia from organs of interest (e.g., liver, heart, kidney, white adipose tissue, brown adipose tissue, gastrocnemius, soleus etc.) for determination of 1-14C1-2-deoxy-D-glucose tracer uptake. Plasma and tissue samples were processed as described previously (Ayala et al., 2011). Briefly, plasma samples were deproteinized with Ba(OH)2 and ZnSO4 and dried to eliminate tritiated water. The glucose turnover rate (mg/kg-min) was calculated as the rate of tracer infusion (dpm/min) divided by the corrected plasma glucose specific activity (dpm/mg) per kg body weight of the mouse. Fluctuations from steady state were accounted for by use of Steele's model. Plasma glucose was measured using Analox GMD9 system (Analox Technologies).
Tissue samples (˜30 mg each) were homogenized in 750 μl of 0.5% perchloric acid, neutralized with 10 M KOH and centrifuged. The supernatant was then used for first measuring the abundance of total [1-14C] signal (derived from both 1-14C-2-deoxy-D-glucose, 1-14C-2-deoxy-D-glucose 6 phosphate) and, following a precipitation step with 0.3 N […] and 0.3 N ZnSO4, for the measuring of non-phosphorylated 1-14C-2-deoxy-D-glucose. Glycogen was isolated by ethanol precipitation from 30% KOH tissue lysates, as described (Shiota, 2012). Insulin level in plasma at T0 and T140 were measured using a Stellux ELISA rodent insulin kit (Alpco).

SWELL1 protein = SWELL1 protein (Mus musculus, UniProt Q80WG5); conditions: for SWELL1 protein expression: applied for 96 hours (10 μM)
[2] = test system: delayed rectifier channels; conditions: cited from earlier work
[3] = test system: cytochrome p450 isoenzyme; assay: Cytochrome P450 inhibition assay, overall statement; type: in vitro ADME, Human; conditions: in words
human Kv = conditions: cited from earlier work

## CCCCC1(C2CCCC2)Cc2cc(OCCCC(=O)O)c(Cl)c(Cl)c2C1=O (stereo not shown) [SN-401, 4-((2-butyl-6,7-dichloro-2-cyclopentyl-1-oxo-2,3-dihydro-1H-inden-5-yl)oxy)butanoic acid]
[1]
  Signs of toxicity: no overt signs of toxicity
VRAC/ICl,SWELL
  IC50: ~5 µM
T2D KKAy mice; T2D KKAy mice, 5 mg/kg i.p. 4 days, vs vehicle
  Glucose-infusion rate (GIR) to maintain euglycemia: higher
T2D KKAy mice; T2D KKAy mice, Basal
  Reduction of hepatic glucose production (Ra) at baseline: 40%
T2D KKAy mice; T2D KKAy mice, Clamp
  Suppression of hepatic glucose production (Ra) during glucose/insulin infusion: 75%
T2D KKAy mice; adipose
  Glucose incorporation into glycogen: markedly increased
T2D KKAy mice; brown fat
  Insulin-stimulated 2-DG uptake: not
T2D KKAy mice; gonadal white adipose tissue (gWAT)
  Insulin-stimulated 2-DG uptake: enhanced
T2D KKAy mice; inguinal white adipose tissue (iWAT)
  Insulin-stimulated 2-DG uptake: enhanced
T2D KKAy mice; liver
  Glucose incorporation into glycogen: markedly increased
T2D KKAy mice; myocardium
  Insulin-stimulated 2-DG uptake: enhanced
T2D KKAy mice; skeletal muscle
  Glucose incorporation into glycogen: markedly increased
  Insulin-stimulated 2-DG uptake: not
SWELL1 protein
  EC50: < 1 µM
SWELL1 protein; 3T3-F442A adipocytes
  SWELL1 protein expression: 1.5 fold control expression
SWELL1 protein; 3T3-F442A preadipocytes
  SWELL1 protein expression: 3 fold control expression
[2]
  Effect on delayed rectifier channels: no effect
[3]
  Cytochrome p450 isoenzyme inhibition: minimal
Human Kv
  Effect on human Kv channels: no effect
